Source: ChEMBL document CHEMBL6092167, “Phosphorylation as an Effective Tool to Improve Stability and Reduce Toxicity of Antimicrobial Peptides” (J Med Chem, 2024)
Values after ≈ are worked out from the molar mass of the structure shown. Active and inactive are the calls of the source. The rule behind the calls is not given here. Non-standard residues stand in square brackets, D forms with d. Residues, ends and D or L forms follow the SMILES beside them. Bip = N[C@@H](Cc1ccc(-c2ccccc2)cc1)C(=O)O; pY = N[C@@H](Cc1ccc(OP(=O)(O)O)cc1)C(=O)O

How the values were obtained:
[1] = test system: Klebsiella pneumoniae; test: Antibacterial activity against Klebsiella pneumoniae ATCC 700603 infected in BALB/c mouse lung infection model assessed as improved alveolar aggregation at 5.31 mg/kg, ip administered twice daily for 3 days and measured after 7 days; assay type: functional, organism-based; conditions: time 10.0 day
[2] = test system: Klebsiella pneumoniae; test: Bactericidal activity against Klebsiella pneumoniae ATCC 700603 at 2 times MIC within 60 mins by time kill assay; assay type: functional, organism-based
[3] = Toxicity in ip dosed BALB/c mouse assessed as effect on lung at LD50 dose by H and E staining based assay; assay type: organism-based; conditions: in vivo
[4] = test system: Klebsiella pneumoniae; test: Antibacterial activity against Klebsiella pneumoniae ATCC 700603 infected in BALB/c mouse lung infection model assessed as increase in mouse survival at 5.31 mg/kg, ip administered twice daily for 3 days and measured for 7 days; assay type: functional, organism-based; conditions: time 10.0 day
[5] = test system: Cell membrane; test: Induction of cytoplasmic membrane rupture in Pseudomonas aeruginosa ATCC 27853 assessed as blistering at 2 times MIC incubated for 30 to 120 mins by SEM analysis; assay type: subcellular; conditions: time 30-120 min
[6] = test system: Staphylococcus aureus; test: Antibacterial activity against Staphylococcus aureus ATCC 25923 in presence of MgCl2; assay type: functional, organism-based
[7] = test system: Staphylococcus aureus; test: Antibacterial activity against Staphylococcus aureus ATCC 25923 infected in BALB/c mouse systemic infection model assessed as reduction in bacterial load in kidney at 21.21 mg/kg, ip pre-infected for 2 hrs followed by compound addition and measured after 8 hrs postinfection; assay type: functional, organism-based; conditions: time 6.0 hrs
[8] = test system: Escherichia coli; test: Antibacterial activity against Escherichia coli ATCC 25922 in presence of […]; assay type: functional, organism-based
[9] = Stability in Kunming mouse serum assessed as half life measured upto 24 hrs by RP-HPLC method; assay type: ADME, cell-free
[10] = test system: Klebsiella pneumoniae; test: Additive antibacterial activity against Klebsiella pneumoniae ATCC 700603 assessed as fractional inhibitory concentration index at 1/4 to 4 times MIC incubated for 18 to 24 hrs in presence of kanamycin by checkerboard assay; assay type: functional; conditions: time 18-24 hrs
[11] = test system: Staphylococcus aureus; test: Antibacterial activity against Staphylococcus aureus ATCC 25923 infected in BALB/c mouse systemic infection model assessed as reduction in inflammatory response in lung tissue at 21.21 mg/kg, ip pre-infected for 2 hrs followed by compound addition and measured after 8 hrs postinfection; assay type: functional, organism-based; conditions: time 6.0 hrs
[12] = test system: Cell membrane; test: Induction of inner membrane permeabilization in Escherichia coli ML-35 assessed as increase in […] intensity by ONPG dye based microplate reader assay; assay type: subcellular
[13] = test system: Staphylococcus aureus; test: Bactericidal activity against Staphylococcus aureus ATCC 25923 at 2 times MIC within 120 mins by time kill assay; assay type: functional, organism-based
[14] = test system: Staphylococcus aureus; test: Antibacterial activity against Staphylococcus aureus ATCC 25923 infected in BALB/c mouse systemic infection model assessed as reduction in bacterial load in lung at 21.21 mg/kg, ip pre-infected for 2 hrs followed by compound addition and measured after 8 hrs postinfection; assay type: functional, organism-based; conditions: time 6.0 hrs
[15] = test system: Cell membrane; test: Induction of cytoplasmic membrane rupture in Pseudomonas aeruginosa ATCC 27853 assessed as leakage of cellular content at 2 times MIC incubated for 30 to 120 mins by SEM analysis; assay type: subcellular; conditions: time 30-120 min
[16] = test system: Staphylococcus aureus; test: Antibacterial activity against Staphylococcus aureus ATCC 25923 preincubated with serum for 6 hrs followed by 15 mins inactivation prior to bacteria addition and measured after 18 to 24 hrs; assay type: functional, organism-based; conditions: time 18-24 hrs
[17] = Toxicity in ip dosed BALB/c mouse assessed as effect on heart at LD50 dose by H and E staining based assay; assay type: organism-based; conditions: in vivo
[18] = Toxicity in ip dosed BALB/c mouse assessed as liver edema at LD50 dose by H and E staining based assay; assay type: organism-based; conditions: in vivo
[19] = test system: Klebsiella pneumoniae; test: Inhibition of rifampicin resistance in Klebsiella pneumoniae ATCC 700603 at 1:1 compound: rifampicin molar ratio measured after 20 generation; assay type: functional, organism-based
[20] = test system: Klebsiella pneumoniae; test: Antibacterial activity against Klebsiella pneumoniae ATCC 700603 infected in BALB/c mouse lung infection model assessed as alveolar dilation at 5.31 mg/kg, ip administered twice daily for 3 days and measured after 7 days; assay type: functional, organism-based; conditions: time 10.0 day
[21] = test system: Cell membrane; test: Induction of cytoplasmic membrane rupture in Staphylococcus aureus ATCC 25923 assessed as shrinkage at 2 times MIC incubated for 30 to 120 mins by SEM analysis; assay type: subcellular; conditions: time 30-120 min
[22] = test system: Klebsiella pneumoniae; test: Additive antibacterial activity against Klebsiella pneumoniae ATCC 700603 assessed as fractional inhibitory concentration index at 1/4 to 4 times MIC incubated for 18 to 24 hrs in presence of ciprofloxacin by checkerboard assay; assay type: functional; conditions: time 18-24 hrs
[23] = test system: Staphylococcus aureus; test: Antibacterial activity against Staphylococcus aureus ATCC 25923 in presence of KCl; assay type: functional, organism-based
[24] = test system: Klebsiella pneumoniae; test: Antibacterial activity against Klebsiella pneumoniae ATCC 700603 incubated for 18 to 24 hrs by broth microdilution method; assay type: functional; conditions: time 18-24 hrs
[25] = test system: Staphylococcus aureus; test: Antibacterial activity against Staphylococcus aureus ATCC 25923 in presence of ZnCl2; assay type: functional, organism-based
[26] = test system: Staphylococcus aureus; test: Antibacterial activity against Staphylococcus aureus ATCC 25923 infected in BALB/c mouse systemic infection model assessed as reduction in bacterial load in lung at 20 mg/kg, ip pre-infected for 2 hrs followed by compound addition and measured after 8 hrs postinfection; assay type: functional, organism-based; conditions: time 6.0 hrs
[27] = test system: Staphylococcus aureus; test: Antibacterial activity against Staphylococcus aureus ATCC 25923 infected in BALB/c mouse systemic infection model assessed as reduction in bacterial load in kidney at 20 mg/kg, ip pre-infected for 2 hrs followed by compound addition and measured after 8 hrs postinfection; assay type: functional, organism-based; conditions: time 6.0 hrs
[28] = test system: Staphylococcus aureus; test: Antibacterial activity against Staphylococcus aureus ATCC 25923 assessed as fold increase in MIC preincubated with serum for 6 hrs followed by 15 mins inactivation prior to bacteria addition and measured after 18 to 24 hrs; assay type: functional; conditions: time 18-24 hrs
[29] = test system: Klebsiella pneumoniae; test: Antibacterial activity against Klebsiella pneumoniae ATCC 700603 infected in BALB/c mouse lung infection model assessed as increase in mouse survival at 5 mg/kg, ip administered twice daily for 3 days and measured for 7 days; assay type: functional, organism-based; conditions: time 10.0 day
[30] = test system: Staphylococcus aureus; test: Antibacterial activity against Staphylococcus aureus ATCC 25923 infected in BALB/c mouse systemic infection model assessed as reduction in bacterial load in spleen at 20 mg/kg, ip pre-infected for 2 hrs followed by compound addition and measured after 8 hrs postinfection; assay type: functional, organism-based; conditions: time 6.0 hrs
[31] = test system: Staphylococcus aureus; test: Antibacterial activity against Staphylococcus aureus ATCC 25923 infected in BALB/c mouse systemic infection model assessed as reduction in inflammatory response in lung tissue at 20 mg/kg, ip pre-infected for 2 hrs followed by compound addition and measured after 8 hrs postinfection; assay type: functional, organism-based; conditions: time 6.0 hrs
[32] = Toxicity in ip dosed BALB/c mouse assessed as hemorrhage in kidney at LD50 dose by H and E staining based assay; assay type: organism-based; conditions: in vivo
[33] = Toxicity in ip dosed BALB/c mouse assessed as inflammatory cell infiltration in kidney at LD50 dose by H and E staining based assay; assay type: organism-based; conditions: in vivo
[34] = test system: Staphylococcus aureus; test: Antibacterial activity against Staphylococcus aureus ATCC 25923 infected in BALB/c mouse systemic infection model assessed as improved alveoli dilation at 20 mg/kg, ip pre-infected for 2 hrs followed by compound addition and measured after 8 hrs postinfection; assay type: functional, organism-based; conditions: time 6.0 hrs
[35] = test system: Klebsiella pneumoniae; test: Antibacterial activity against Klebsiella pneumoniae ATCC 700603 infected in BALB/c mouse lung infection model assessed as increased healing at 5 mg/kg, ip administered twice daily for 3 days and measured for 7 days; assay type: functional, organism-based; conditions: time 10.0 day
[36] = Toxicity in ip dosed BALB/c mouse assessed as inflammatory cell infiltration in lung at LD50 dose by H and E staining based assay; assay type: organism-based; conditions: in vivo

## CC(C)C[C@H](NC(=O)[C@H](CC(C)C)NC(=O)[C@H](Cc1ccc(OP(=O)(O)O)cc1)NC(=O)[C@H](CCCCN)NC(=O)[C@H](CC(C)C)NC(=O)[C@H](CCCNC(=N)N)NC(=O)[C@H](CCCCN)NC(=O)[C@H](Cc1ccc(-c2ccccc2)cc1)NC(=O)[C@H](CC(C)C)NC(=O)CN)C(N)=O (H-GL[Bip]KRLK[pY]LL-NH2)
[1]
  Activity: Active
[2]
  Activity: Active
[3]
  Activity: Toxic
[4]
  Activity: Active; Comparable Activity To Polymyxin B
[5]
  Activity: Active
[6]
  Activity: Active; Compound Showed Excellent Tolerance Towards Salt Environment
[7]
  Activity: Active
[8]
  Activity: Active; Compound Showed Excellent Tolerance Towards Salt Environment
[9]
  half-life: 8.51 h
[10]
  fractional inhibitory concentration index (FICI): 0.563
[11]
  Activity: Active
[12]
  Activity: Time-dependent-effect; More Potent Than 1% Triton X-100 And Polymyxin B
[13]
  Activity: Active
[14]
  Activity: Active
[15]
  Activity: Active
[16]
  Activity: Active; Antibacterial Activity Remained Unaffected
[17]
  Activity: Toxic
[18]
  Activity: Toxic
[19]
  inhibition: Active
[20]
  Activity: Active
[21]
  Activity: Active
[22]
  fractional inhibitory concentration index (FICI): 0.563
[23]
  Activity: Active; Compound Showed Excellent Tolerance Towards Salt Environment
[24]
  MIC: 8 µM (≈ 11.2 µg/mL)
[25]
  Activity: Active; Compound Showed Excellent Tolerance Towards Salt Environment

## CC(C)C[C@H](NC(=O)[C@H](CC(C)C)NC(=O)[C@H](Cc1ccc(O)cc1)NC(=O)[C@H](CCCCN)NC(=O)[C@H](CC(C)C)NC(=O)[C@H](CCCNC(=N)N)NC(=O)[C@H](CCCCN)NC(=O)[C@H](Cc1ccc(-c2ccccc2)cc1)NC(=O)[C@H](CC(C)C)NC(=O)CN)C(N)=O (H-GL[Bip]KRLKYLL-NH2)
[26]
  Activity: Active
[27]
  Activity: Active
[5]
  Activity: Active
[28]
  fold change (FC): 2
[29]
  Activity: Active; Comparable Activity To Polymyxin B
[30]
  Activity: Active
[31]
  Activity: Active
[9]
  half-life: 1.36 h
[32]
  Activity: Toxic
[10]
  fractional inhibitory concentration index (FICI): 0.563
[12]
  Activity: Time-dependent-effect; More Potent Than 1% Triton X-100 And Polymyxin B
[33]
  Activity: Toxic
[15]
  Activity: Active
[19]
  inhibition: Active
[34]
  Activity: Active
[35]
  Activity: Active
[21]
  Activity: Active
[22]
  fractional inhibitory concentration index (FICI): 0.75
[24]
  MIC: 8 µM (≈ 10.6 µg/mL)
[36]
  Activity: Toxic
